Measurements: patent publication US20230128402A1 (The Trustees of Princeton University, priority 2020, published 2023)

Assays:
[1] = target: T1, ALDH1a3 (Homo sapiens, UniProt P47895); test: ALDEFLUOR assay in SUM159-M1a-Aldh1a3 cells; assay type: cell-based; set-up: lentiviral vectors containing either the vector backbone or full-length human Aldh1a3; expressed in transfected cells; host or cells: SUM159-M1a human breast cancer cells, lentiviral pLex vector; details: for Inhi-bitory Activity at 100 nM (%) / Percent of Cells Positive for ALDEFLUOR ™ at 100 nM: SUM159-M1a-Aldh1a3 cells, compound at 100 nM
T1 sequence (P47895 1-512): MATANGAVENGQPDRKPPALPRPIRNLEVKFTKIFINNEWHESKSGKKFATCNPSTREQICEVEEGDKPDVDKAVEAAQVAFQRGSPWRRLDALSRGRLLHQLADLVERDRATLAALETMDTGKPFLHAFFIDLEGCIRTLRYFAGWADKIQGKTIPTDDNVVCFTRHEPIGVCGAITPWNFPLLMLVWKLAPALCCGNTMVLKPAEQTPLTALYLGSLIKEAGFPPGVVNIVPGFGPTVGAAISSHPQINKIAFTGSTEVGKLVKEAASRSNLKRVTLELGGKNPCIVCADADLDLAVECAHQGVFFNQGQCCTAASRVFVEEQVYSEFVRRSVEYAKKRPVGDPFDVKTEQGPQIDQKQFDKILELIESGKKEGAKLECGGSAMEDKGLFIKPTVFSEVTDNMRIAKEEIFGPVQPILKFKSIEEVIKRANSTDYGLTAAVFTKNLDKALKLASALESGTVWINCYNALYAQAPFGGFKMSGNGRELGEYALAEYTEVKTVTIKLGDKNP
Description: (§1) Cells were counted, centrifuged and resuspended at 1,000,000 cells/mL in ALDEFLUOR™ buffer (Stemcell Technologies). ALDEFLUOR™ substrate (Stemcell Technologies, 1:200) and test compound or 1 mM DEAB were added to cell suspension and incubated at 37° C. for 45 minutes with vortexing every 15 minutes. Cells were centrifuged and resuspended in ALDEFLUOR™ buffer with DAPI at 5 μg/mL. Samples were analyzed with the BD LSR2 flow cytometry platform. Gating was performed using DEAB as a negative control.
Gating for background fluorescence was performed using 1 millimolar DEAB as a negative control.
The [inh-min]threshold was set at the lower bound of two standard deviations of control samples, while the IC50 threshold was set at 50% of the average of control samples.
An ALDEFLUOR™ assay was also used to assess the relative activity of several compounds described herein against SUM159-M1a-Aldh1a3 cells.

[2] = target: T1, ALDH1a3; test: Aldh1a3 enzyme inhibition assay, recombinant hALDH1a3; assay type: biochemical; set-up: made in house; host or cells: E. coli BL21-DE3, pET-Aldh1a3; details: resorufin fluorescence, 20° C.
Source text: (§2) Recombinant enzyme and inhibitor added immediately before assay. Reaction rate measured by resorufin fluorescence.

[3] = tested on: ALDH isoforms 1a1, 1a2, 1a3 and 3a1; assay type: cell-based, human
Description: The coding sequences of Aldh1a1, Aldh1a2, Aldh1a3 and Aldh3a1 were cloned from cDNA made from pooled human reference RNA samples. Cloned sequences flanked by Age1 and Xho1 restriction sites were inserted into the pLex lentiviral plasmid. Clones were sequenced and compared against NCBI expressed sequence tags ([…]) for accuracy. […]. Viruses were collected and filtered at 0.45 um, then cells were transduced using polybrene (8 μg/mL) for 12 hours, followed by culture with 1 μg/mL puromycin for the duration of experiments. All viral transduction and selection was performed on a cell population-wide basis.
as §1
ALDH isoforms 1a1, 1a2, 1a3 and 3a1 were expressed in MCF7 or SUM159 cells, which were subsequently used in an ALDEFLUOR™ assay.

[4] = target: T2, mALDH1a3 (Mus musculus, UniProt Q9JHW9); test: Aldh1a3 enzyme inhibition assay, recombinant mALDH1a3; assay type: biochemical; details: resorufin fluorescence, 20° C.
T2 construct: made in house; host or cells: E. coli BL21-DE3, pET-Aldh1a3
T2 sequence (Q9JHW9 1-512): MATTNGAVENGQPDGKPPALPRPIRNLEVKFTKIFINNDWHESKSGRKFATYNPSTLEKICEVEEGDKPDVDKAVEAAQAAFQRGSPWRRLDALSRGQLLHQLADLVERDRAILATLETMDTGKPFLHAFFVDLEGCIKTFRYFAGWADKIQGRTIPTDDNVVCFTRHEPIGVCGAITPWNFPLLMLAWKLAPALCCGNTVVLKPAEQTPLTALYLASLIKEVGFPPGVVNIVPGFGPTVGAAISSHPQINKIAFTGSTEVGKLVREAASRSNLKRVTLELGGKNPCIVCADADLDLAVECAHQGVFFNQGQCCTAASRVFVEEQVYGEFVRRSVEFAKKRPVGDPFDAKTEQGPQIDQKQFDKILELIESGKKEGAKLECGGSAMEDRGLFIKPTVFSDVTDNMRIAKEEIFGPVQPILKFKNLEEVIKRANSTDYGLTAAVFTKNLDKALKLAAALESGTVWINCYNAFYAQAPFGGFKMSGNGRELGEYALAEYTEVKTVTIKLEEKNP
Source text: as §2

[5] = Fast and refeed insulin secretion in db/db mice; assay type: in vivo, mouse; details: 40 mg per kg oral gavage once per day, 14 days
Description: C57/Bl6 mice homozygous for the spontaneous mutation (Lepr^db, referred to as db/db) that develop severe obesity and Type 2 Diabetes within 12 weeks were raised through standard husbandry practice and we separated into two groups followed by acclimatization for 9 days in single housing.
Daily food intake and body mass were monitored each day and baseline levels of plasma insulin and glucose were monitored to confirm identical group characteristics.
Compound MBE1 was dissolved to 200 mg/mL in DMSO followed by suspension into a 0.5% methycellulose, 0.5% Tween-80 solution. Mice were treated via oral gavage once per day to achieve 40 mg per kg body mass MBE1 or were treated with vehicle control. Mouse body mass and food consumption were monitored daily over 14 days.
At Day 14, food was removed from mouse cages for 16 hours, and then food was reintroduced. Plasma insulin levels were assayed by ELISA at baseline and at 1 hour, 2 hour and 4 hours following provision of chow and ad libitum feeding.

[6] = tested on: SUM 159-M1a cells; test: SUM 159-M1a xenograft metastasis, tail vein or intracardiac injection; assay type: in vivo, mouse; details: IP in conjunction with paclitaxel; FIGS. 9B and 10B
Description: All xenograft experiments were conducted on 8-week old female mice (athymic Nu/Nu, or NOD/SCID Gamma). Xenograft experiments were conducted using 125,000 SUM 159-M1a cells in 100 μL PBS for tail vein or intracardiac injection. Mice were randomized following injection. Bioluminescent imaging (BLI) was conducted using the IVIS 200 system and retroorbital luciferin injection. For drug treatment, MBE1 was given to mice via IP injection in conjunction with paclitaxel (5 mg/mL in 10% ethanol, 10% Kolliphor EL, 80% PBS) at the time intervals and dosages indicated in FIG. 9A (tail vein injection) and FIG. 10A (intracardiac injection).

[7] = tested on: SUM 159-M1a cells; details: shown in PCT/US2019/044278; cited from earlier work
[8] = Pharmacokinetic profiling in mice
[9] = Toxicity experiments in C57Bl6 mice; assay type: in vivo, mouse; details: IP, ascending 12.5 to 200 mg/kg at 24h intervals; 25 mg/kg every 3 days for 18 days
Description: All mice were originally ordered from the Jackson Laboratory (Bar Harbor, Me.) and breeding was conducted in a specific pathogen-free (SPF) barrier facility. Toxicity experiments were performed on 8-12-week old male and female C57Bl6 mice. MBE1 was dissolved at 50 mg/mL in DMSO followed by a […] into Kolliphor EL, followed by a 1:5 dilution into PBS to yield a 5 mg/ml MBE1 solution, (10% DMSO, 10% Kolliphor EL, 80% PBS). This was administered via IP injection at ascending doses from 12.5 to 200 mg/kg body mass in a set of 3 mice at 24h intervals. Body condition score, food uptake, fecal/urine production, behavior and body weight were measured as toxicity readouts. Five mice were then treated every 3 days with 25 mg/kg MBE1 for 18 days.

| Molecule | Inhi-bitory Activity at 100 nM (%) [1] [%] | Percent of Cells Positive for ALDEFLUOR ™ at 100 nM [1] [%] | IC50 [2] [µM] | ALDH isoform specificity, ALDEFLUOR-positive cells [3] | IC50 [4] [µM] | plasma insulin after fast and refeed challenge (ELISA) [5] | inhibition of ALDH1a3 activity (percentage of ALDEFLUOR-positive cells) ([1]; 100 nM, FIG. 6A) | inhibitory activity detected at concentrations as low as ([1]; SUM 159-M1a-Aldh1a3 cells, FIG. 6B) [nM] | lung and bone metastasis (BLI) [6] | metastatic lesions in mice [7] | cage side observations, adverse reactions ([8]; 10 mg/kg oral gavage or 1 mg/kg intravenous, 0 hours to 24 hours post-dosing) | half-life ([8]; male, CD-1/C57BL/6, mouse, plasma, iv, 1 mg/kg) [min] | bioavailability ([8]; male, CD-1/C57BL/6, mouse, plasma, oral, 10 mg/kg) [%] | half-life ([8]; male, CD-1/C57BL/6, mouse, plasma, po, 10 mg/kg) [min] | time plasma concentrations exceed 5-fold the IC50 ([8]; mice, oral gavage (PO) and intravenous (IV)) [h] | acute or chronic toxicity [9] |
| --- | --- | --- | --- | --- | --- | --- | --- | --- | --- | --- | --- | --- | --- | --- | --- | --- |
| 2-ethyl-N-(7-fluoro-2-oxo-3,4-dihydro-1H-quinolin-6-yl)benzamide [Compound 4] | 100 | 0.03 | < 0.1 | specifically inhibits ALDH1a3 at concentrations below 10 μM | 0.1 to 0.25 |  |  |  |  |  |  |  |  |  |  |  |
| O=C1CCc2cc(NCc3cc[nH]c3)c(F)cc2N1 [Compound 17] | 2 | 75 | > 5 |  | > 5 |  |  |  |  |  |  |  |  |  |  |  |
| Cc1ccc(C(=O)Nc2ccc3c(c2)CCC(=O)N3)cc1C [Compound 11] | 0.60 | 76 | > 5 |  | > 5 |  |  |  |  |  |  |  |  |  |  |  |
| CCc1cnccc1C(=O)Nc1cc2c(cc1F)NC(=O)CC2 [Compound 1, 3-ethyl-N-(7-fluoro-2-oxo-3,4-dihydro-1H-quinolin-6-yl)pyridine-4-carboxamide] | 99 | 0.73 |  |  |  | effectively improve insulin secretion | high-affinity compounds for the inhibition of ALDH1a3 activity | 2 | effective therapeutic to treat established metastatic disease | shrink metastatic lesions in mice without toxicity | no adverse reactions | 107 | 88 | 82.2 | > 10 | Neither experiment showed any indication of either acute or chronic toxicity |
| O=C1CCc2cc(NC(=O)c3ccncc3)c(F)cc2N1 [Compound 2] | 8 | 70 | > 5 |  | > 5 |  |  |  |  |  |  |  |  |  |  |  |
| Cc1cc(C(=O)Nc2cc3c(cc2F)NC(=O)CC3)ccn1 [Compound 16] | 29 | 55 | > 5 |  | > 5 |  |  |  |  |  |  |  |  |  |  |  |
